Values of other authors, collected in patent US20100119592A1, “CYTARABINE FOR TREATMENT OF GLIOMA” (priority 2006, published 2010).

Test system: proliferating mammalian cells in culture
Settings: wide variety of proliferating mammalian cells in culture

Nc1ccn([C@@H]2O[C@H](CO)[C@@H](O)[C@@H]2O)c(=O)n1 [Cytarabine, 4-amino-1-beta-D-arabinofuranosyl-2(1H)-pyrimidinone]
cytotoxicity: cytotoxic
